# Source: PMC7782499, “Progerinin, an optimized progerin-lamin A binding inhibitor, ameliorates premature senescence phenotypes of Hutchinson-Gilford progeria syndrome” (Communications Biology, 2021)
# Tested on: Beagle dogs
# Experiment: Maximum tolerated dose study in Beagle dogs, escalated-dose oral administration
# Assay type: in vivo
# Set-up: HGB: unit not given here
# Conditions: for A/G / ALB / ALP / ALT / AST / BASO / BUN / CHO / CRE / EOS / GLU / HCT / HGB / K+ / LYM / MCH / MCHC / MCV / MONO / NEU / Na+ / PLT / PRO / RBC / Reti / T-BIL / TG / WBC: ~24 h post dose
# Source text: The protocol and procedures involving the care and use of animals in this study was reviewed and approved by IACUC of QuBEST BIO prior to conduct (Approval no.: QBSIACUC-A18142). During the study, the care and use of animals will be conducted in accordance with all applicable guidelines of Animal Welfare Act. Non-naive one male and one female Beagle dogs (~16–24 months old, original supplier: ORIENTBIO Co., Ltd, Korea) were selected from the stock colony and assigned for the study. The route of administration was the oral (by gavage) route, which is the anticipated clinical route of exposure. Test article formulations were administered once via oral gavage. The day of 1st dosing was designated as Day 1. Each dose was administered via a syringe attached with 12-french feeding tube. A dose volume of 5 ml/kg was used and individual dose volumes were based on the most recent body weight. Each dose was followed by a distilled water of 5 ml. Each animal was observed twice daily (a.m. and p.m.) for mortality and moribundity; findings were recorded as they were observed. Cage side observations were made for each animal once daily; abnormal findings were recorded. […] Body weights were measured prior to each dosing. […] Prior to dosing and ~24 h post each dose, blood was collected as the same method and frequency with hematology analysis using no anticoagulant and then serum was separated by centrifugation and stored at freezer until analyze (AU 400, Olympus, Japan; […] 744 Na^+/K^+/[…] Analyzer, SIEMENS, Germany). In terminal procedures, all surviving animals were returned to the stock colony without necropsy. Toxicity studies were performed by QuBEST BIO Co., Ltd (Yongin, Korea).
# The objective of this study was to determine the maximum tolerated dose (MTD) of SLC-D011 following dose escalation by oral gavage to Beagle dogs.
# The study group was detailed in Text Table 1.
# Text Table 1. Study Group
# Dose Level Dose Conc. No. of Animals†
# Group Treatment (mg/kg) (mg/mL)
# †: Animals were re-used for each dose with at least 4-day wash-out period.
# The following parameters were evaluated in this study: mortality, clinical signs, body weights and clinical pathology parameters (hematology and serum biochemistry).
# Mortality and Clinical Observations
# All animals survived until end of the study. Test article-related clinical observations were limited to oily soft stool in the 100 mg/kg/day group animals and vomitus (frothy) and soft sto ol in the 400 […]
# Clinical Pathology Parameters (Hematology and Serum Chemistry) […]
# the 100 and 400 mg/kg group animals on approximately 24 hours post each dose, compared to pre […]
# Based on the results of this study, the maximum tolerated dose (MTD) of SLC-D011 was considered to […]
# Test article formulations were administered once via oral gavage. The day of 1st dosing was designated […]
# Each dose was administered via a syringe attached with 12-french feeding tube. A dose volume of 5 mL/kg was used and individual dose volumes were based on the most recent body weight. Each dose was followed by a distilled water of 5 mL. […]
# Each animal was observed twice daily (a.m. and p.m.) for mortality and moribundity; findings were recorded as they were observed. Cage side observations were made for each animal once daily; abnormal findings were recorded. Detailed observations were made for each animal once prior to treatment; abnormal findings (ranked/graded, if appropriate) or an indication the animal appears […]
# Body weights were measured prior to each dosing. […]
# Prior to each dosing and approximately 24 hours post each dose, blood samples for hematology examination were collected from the via cephalic vein into tubes with K2EDTA anticoagulant and […]
# Parameters Unit Measurement Method
# ⓐ RBC (Red blood cell count) 106/μL Electric Impedance […]
# ⓒ HGB (Hemoglobin conc.) g/dL Cyanmethemoglobin […]
smiles,measurement,setting,value
CC1(C)Oc2cc3oc(=O)ccc3cc2C[C@@H]1OC/C=C/c1ccccc1 [SLC-D011],Body weights,100 mg/kg/day group animals by Day 4,lower body weights were temporarily noted
same,Hematology and serum chemistry parameters (in words),"100 and 400 mg/kg, ~24 hours post each dose vs pre dose",no toxicologically significant changes
same,A/G,"female F1, 100 mg/kg",0.72
same,ALB,"female F1, 100 mg/kg",2.62 g/dL
same,ALP,"female F1, 100 mg/kg",106.7 U/L
same,ALT,"female F1, 100 mg/kg",34.3 U/L
same,AST,"female F1, 100 mg/kg",41.7 U/L
same,BASO,"female F1, 100 mg/kg",0.6%
same,BUN,"female F1, 100 mg/kg",17.7 mg/dL
same,CHO,"female F1, 100 mg/kg",189.4 mg/dL
same,CRE,"female F1, 100 mg/kg",0.82 mg/dL
same,EOS,"female F1, 100 mg/kg",1.2%
same,GLU,"female F1, 100 mg/kg",96.4 mg/dL
same,HCT,"female F1, 100 mg/kg",47.8%
same,HGB,"female F1, 100 mg/kg",15.6
same,K+,"female F1, 100 mg/kg",4.5 mmol/L
same,LYM,"female F1, 100 mg/kg",39.9%
same,MCH,"female F1, 100 mg/kg",22.5 pg
same,MCHC,"female F1, 100 mg/kg",32.6 g/dL
same,MCV,"female F1, 100 mg/kg",68.9 fL
same,MONO,"female F1, 100 mg/kg",5.6%
same,NEU,"female F1, 100 mg/kg",52.3%
same,Na+,"female F1, 100 mg/kg",141 mmol/L
same,PLT,"female F1, 100 mg/kg",357 K/uL
same,PRO,"female F1, 100 mg/kg",6.27 g/dL
same,RBC,"female F1, 100 mg/kg",6.93 M/uL
same,Reti,"female F1, 100 mg/kg",0.61%
same,T-BIL,"female F1, 100 mg/kg",0.18 mg/dL
same,TG,"female F1, 100 mg/kg",21.3 mg/dL
same,WBC,"female F1, 100 mg/kg",7.80 K/uL
same,A/G,"female F1, 400 mg/kg",0.78
same,ALB,"female F1, 400 mg/kg",2.53 g/dL
same,ALP,"female F1, 400 mg/kg",174.7 U/L
same,ALT,"female F1, 400 mg/kg",39.1 U/L
same,AST,"female F1, 400 mg/kg",34.5 U/L
same,BASO,"female F1, 400 mg/kg",0.8%
same,BUN,"female F1, 400 mg/kg",12.08 mg/dL
same,CHO,"female F1, 400 mg/kg",175.1 mg/dL
same,CRE,"female F1, 400 mg/kg",0.85 mg/dL
same,EOS,"female F1, 400 mg/kg",1.4%
same,GLU,"female F1, 400 mg/kg",104.39 mg/dL
same,HCT,"female F1, 400 mg/kg",50.8%
same,HGB,"female F1, 400 mg/kg",15.7
same,K+,"female F1, 400 mg/kg",4.9 mmol/L
same,LYM,"female F1, 400 mg/kg",31.2%
same,MCH,"female F1, 400 mg/kg",22.2 pg
same,MCHC,"female F1, 400 mg/kg",30.9 g/dL
same,MCV,"female F1, 400 mg/kg",71.7 fL
same,MONO,"female F1, 400 mg/kg",6.5%
same,NEU,"female F1, 400 mg/kg",59.6%
same,Na+,"female F1, 400 mg/kg",143 mmol/L
same,PLT,"female F1, 400 mg/kg",378 K/uL
same,PRO,"female F1, 400 mg/kg",5.76 g/dL
same,RBC,"female F1, 400 mg/kg",7.08 M/uL
same,Reti,"female F1, 400 mg/kg",0.95%
same,T-BIL,"female F1, 400 mg/kg",0.15 mg/dL
same,TG,"female F1, 400 mg/kg",29.3 mg/dL
same,WBC,"female F1, 400 mg/kg",10.99 K/uL
same,Mortality,"female dog, 100 mg/kg",0/1
same,Clinical Observations Day 1,"female dog, 100 mg/kg, about 7 hours post dose",Soft stool (Oily)
same,Mortality,"female dog, 400 mg/kg",0/1
same,Clinical Observations Day 1,"female dog, 400 mg/kg, about 6 hours post dose",Black soft stool
same,A/G,"male M1, 100 mg/kg",0.58
same,ALB,"male M1, 100 mg/kg",2.41 g/dL
same,ALP,"male M1, 100 mg/kg",83.4 U/L
same,ALT,"male M1, 100 mg/kg",43.1 U/L
same,AST,"male M1, 100 mg/kg",28 U/L
same,BASO,"male M1, 100 mg/kg",0.2%
same,BUN,"male M1, 100 mg/kg",16.83 mg/dL
same,CHO,"male M1, 100 mg/kg",161 mg/dL
same,CRE,"male M1, 100 mg/kg",0.7 mg/dL
same,EOS,"male M1, 100 mg/kg",4.3%
same,HCT,"male M1, 100 mg/kg",46.8%
same,HGB,"male M1, 100 mg/kg",15.4
same,K+,"male M1, 100 mg/kg",4.8 mmol/L
same,LYM,"male M1, 100 mg/kg",32.4%
same,MCH,"male M1, 100 mg/kg",23.0 pg
same,MCHC,"male M1, 100 mg/kg",33.0 g/dL
same,MCV,"male M1, 100 mg/kg",69.9 fL
same,MONO,"male M1, 100 mg/kg",7.1%
same,NEU,"male M1, 100 mg/kg",55.7%
same,Na+,"male M1, 100 mg/kg",144 mmol/L
same,PLT,"male M1, 100 mg/kg",354 K/uL
same,RBC,"male M1, 100 mg/kg",6.69 M/uL
same,Reti,"male M1, 100 mg/kg",0.15%
same,T-BIL,"male M1, 100 mg/kg",0.1 mg/dL
same,TG,"male M1, 100 mg/kg",28.9 mg/dL
same,WBC,"male M1, 100 mg/kg",8.83 K/uL
same,A/G,"male M1, 400 mg/kg",0.59
same,ALB,"male M1, 400 mg/kg",2.37 g/dL
same,ALP,"male M1, 400 mg/kg",94.3 U/L
same,ALT,"male M1, 400 mg/kg",74.9 U/L
same,AST,"male M1, 400 mg/kg",27.2 U/L
same,BASO,"male M1, 400 mg/kg",0.6%
same,BUN,"male M1, 400 mg/kg",16.17 mg/dL
same,CHO,"male M1, 400 mg/kg",142 mg/dL
same,CRE,"male M1, 400 mg/kg",0.79 mg/dL
same,EOS,"male M1, 400 mg/kg",4.4%
same,HCT,"male M1, 400 mg/kg",50.5%
same,HGB,"male M1, 400 mg/kg",15.2
same,K+,"male M1, 400 mg/kg",5.1 mmol/L
same,LYM,"male M1, 400 mg/kg",25.1%
same,MCH,"male M1, 400 mg/kg",22.1 pg
same,MCHC,"male M1, 400 mg/kg",30.1 g/dL
same,MCV,"male M1, 400 mg/kg",73.2 fL
same,MONO,"male M1, 400 mg/kg",7.9%
same,NEU,"male M1, 400 mg/kg",61.7%
same,Na+,"male M1, 400 mg/kg",146 mmol/L
same,PLT,"male M1, 400 mg/kg",347 K/uL
same,RBC,"male M1, 400 mg/kg",6.90 M/uL
same,Reti,"male M1, 400 mg/kg",0.34%
same,T-BIL,"male M1, 400 mg/kg",0.12 mg/dL
same,TG,"male M1, 400 mg/kg",34.4 mg/dL
same,WBC,"male M1, 400 mg/kg",9.43 K/uL
same,Mortality,"male dog, 100 mg/kg",0/1
same,Clinical Observations Day 1,"male dog, 100 mg/kg, about 7 hours post dose",Brown soft stool (Oily)
same,Mortality,"male dog, 400 mg/kg",0/1
same,Clinical Observations Day 1,"male dog, 400 mg/kg, about 1 hours post dose",Vomitius (Frothy)
same,Tolerability,single oral administration at 100 and 400 mg/kg,well tolerated
